Test results: patent US20250228862A1, “METHODS OF USING ATR INHIBITORS” (Repare Therapeutics Inc., priority 2022, published 2025)

Tests used:
[1] = test system: RPE1 Cas9 TP53−/− cells; assay: CellTiter Glo viability after sgRNA inactivation of RAD51B, RAD51C or RAD51D; format: cell-based, human
Protocol: (§1) FIG. 9A: compound 121 dose-response curves of RPE1 Cas9 TP53−/− cells transduced with either a control sgRNA (sgAAVS1) or two sgRNAs targeting RAD51B. Cell viability was determined with a CellTiter Glo assay. Open symbols show mean viability from three independent experiments±SD. Solid lines represent a non-linear least square fit to a four-parameter dose-response model.
as §1, with “9B:” for “9A:”, “RAD51C.” for “RAD51B.”
as §1, with “9C:” for “9A:”, “RAD51D.” for “RAD51B.”
To determine the impact of RAD51B, RAD51C or RAD51D deficiency on ATRi sensitivity we individually inactivated these genes in Cas9-expressing RPE1-hTERT-ΔTP53 cells using two independent sgRNAs per gene.

[2] = test system: RNASEH2B wild-type (+/+) and knockout (−/−) 5637 cells; assay: CellTiter Glo viability, isogenic RNASEH2B +/+ and -/- 5637 cells; format: cell-based, human
Protocol: (§2) FIG. 6B: Dose-response curves of isogenic RNASEH2B wild-type (+/+) and knockout (−/−) 5637 cells treated with compound 121. Cell viability was measured by CellTiter Glo assays. Open symbols represent mean from three independent experiments±SD. Solid lines show a non-linear least square fit to a four-parameter dose-response model. […] Approximately a 4× shift in IC50 was observed.
(§3) The RNase H2 protein complex is composed of three subunits encoded by the RNASEH2A, RNASEH2B and RNASEH2C genes in a manner, where all three subunits are required for the complex' stability and activity. To determine whether RNase H2 deficiency increases cellular sensitivity to ATRi, we inactivated the RNASEH2B gene in two human cell lines, RPE1-hTERT-ΔTP53 and 5637, using CRISPR/Cas9 (note that this leads to complete loss of the RNase H2 complex).

[3] = test system: triple-negative breast cancer (TNBC) PDX tumors with RNASEH2B IHC loss; assay: TNBC PDX tumor growth with RNASEH2B IHC loss; format: in vivo
Protocol: FIG. 8A: Growth of subcutaneously implanted triple-negative breast cancer (TNBC) PDX tumors with RNASEH2B IHC loss in immunodeficient mice. Mice were treated by oral gavage with either vehicle or indicated doses of compound 121 once daily at a 3 day on/4 day off intermittent weekly schedule. Data are shown as mean±SEM. N=9 mice/group.
FIG. 8B: Immunohistochemical (IHC) staining of the PDX model from FIG. 8A (top) and a control, RNase H2-proficient PDX (bottom) with an RNase H2-specific antibody.
(§4) To confirm that RNase H2-deficiency sensitizes to ATRi treatment also in vivo, we developed the isogenic 5637 RNASEH2B+/+ and RNASEH2B−/− bladder carcinoma cell lines as subcutaneous xenografts in immunodeficient mice and treated them with compound 121 or a vehicle control. […] Furthermore, we identified a patient-derived xenograft (PDX) of a triple negative breast cancer, that was RNase H2-deficient as confirmed by immunohistochemistry with a RNase H2-specific antibody.

[4] = test system: T24 STAG2 KO cells; assay: Colony formation of bladder carcinoma cells deficient for STAG2; format: cell-based; settings: 9 days treatment, crystal violet
Protocol: FIG. 2: compound 121 preferentially induces cell death in bladder carcinoma cells deficient for STAG2. The STAG2 gene was knocked out in T24 cells using CRISPR-Cas9 (clone 1 and 2). Cells were seeded in 6-well plate format and treated with indicated dose of compound 121 for 9 days. Cells were then fixed and stained using a crystal violet-methanol solution. Colonies were counted, and percentage of survival was determined by normalizing the number of colonies after treatment to the number of colonies in the non-treated conditions.
Because bladder carcinoma is a cancer where STAG2-deficient tumors have been observed, we sought to recapitulate our observation in a cell model originated from bladder carcinoma. Using a similar approach as previously, we generated T24 cells deficient for STAG2.

[5] = test system: 5637 RNASEH2B−/− bladder cancer cell line tumors; assay: Subcutaneous xenograft tumor growth, 5637 RNASEH2B-/-; format: in vivo, mice; settings: oral gavage once daily, 2 day on/4 day off weekly schedule
Protocol: FIG. 7B: Growth of subcutaneously grafted 5637 RNASEH2B−/− bladder cancer cell line tumors in immunodeficient mice. Mice were treated by oral gavage with either vehicle or indicated doses of compound 121 once daily at a 2 day on/4 day off weekly schedule. Data are shown as mean±SEM. N=8 mice/group.
as §4

[6] = test system: CDK12 wild-type (+/+) and knockout (−/−) RPE1 TP53−/− cells; assay: CellTiter Glo viability, isogenic CDK12 +/+ and -/- RPE1 TP53-/- cells; format: cell-based, human; settings: RPE1-hTERT-ΔTP53
Protocol: FIG. 5A: Dose-response curves of isogenic CDK12 wild-type (+/+) and knockout (−/−) RPE1 TP53−/− cells treated with compound 121. Cell viability was measured by CellTiter Glo assays. Open symbols represent mean from three independent experiments±SD. Solid lines show a non-linear least square fit to a four-parameter dose-response model. Approximately a 2× shift in IC50 was observed.
To assess the effect of CDK12 inactivation on ATRi sensitivity we used isogenic cell line pairs in the RPE1-hTERT-ΔTP53 and DLD1 human cell line backgrounds, where we compared clones carrying a CRISPR/Cas9-generated knockout of the CDK12 gene (CDK12−/−) with the parental, CDK12-wild type controls (CDK12+/+).

[7] = test system: RNASEH2B wild-type (+/+) and knockout (−/−) RPE1 TP53−/− cells; assay: CellTiter Glo viability, isogenic RNASEH2B +/+ and -/- RPE1 TP53-/- cells; format: cell-based, human; settings: RPE1-hTERT-ΔTP53
Protocol: as §2, with “6A:” for “6B:”, “RPE1 TP53−/−” for “5637”
as §3

C[C@@H]1COCCN1c1cc([C@]2(O)C[C@H]3CC[C@@H](C2)O3)c2cnn(-c3cc[nH]n3)c2n1 [compound 121]
Sensitization upon gene inactivation (CTG viability) ([1]; two sgRNAs targeting RAD51B vs sgAAVS1): sensitized cells to compound 121 treatment to a comparable extent
Sensitization upon gene inactivation (CTG viability) ([1]; two sgRNAs targeting RAD51C vs sgAAVS1): sensitized cells to compound 121 treatment to a comparable extent
Sensitization upon gene inactivation (CTG viability) ([1]; two sgRNAs targeting RAD51D vs sgAAVS1): sensitized cells to compound 121 treatment to a comparable extent
Sensitivity of RNase H2-deficient vs wild-type cells [2]: more sensitive
Tumor response at the maximum tolerated dose ([3]; maximum tolerated dose, oral gavage, 3 day on/4 day off): tumor regressions
Response of PDX model to treatment ([3]; oral gavage once daily, 3 day on/4 day off weekly schedule): responsive
Colony formation after treatment, T24-STAG2 KO [4]: colony formation of T24-STAG2 KO cells was impaired
Tumor growth inhibition [5]: profound and dose-dependent tumor growth inhibition
Sensitivity of CDK12-deficient vs parental cells [6]: increased sensitivity
Sensitivity of RNase H2-deficient vs wild-type cells [7]: more sensitive
